Reference: patent publication US7888357B2, “Anti-inflammatory and protein kinase inhibitor compositions and related methods for downregulation of detrimental cellular responses and inhibition of cell death” (Northwestern University, priority 2001, dated 2011)

What was measured:
rat astrocytes = assay: Western blot of glial activation responses in rat astrocyte cultures; type: cell-based; details: for GFAP levels: activated rat astrocytes
Procedure: FIG. 2. Selective effects of compound 1 (MW01-070C) on glial activation responses and gene-regulating protein kinase pathways. BV-2 cells and rat astrocytes were treated with control buffer (C) or stimulated with LPS or Aβ1-42 peptide in the presence or absence of compound 1, and cell lysates were analyzed by Western blots. (A) Astrocytes treated with LPS and compound 1 show concentration-dependent inhibition of iNOS and IL-1β production but not GFAP. (B) Astrocytes treated with A β1-42 and compound 1 (10 μM) show inhibition of iNOS and IL-1β but not apoE and COX-2. (C) BV-2 cells treated with LPS and compound 1 (10 μM) show inhibition of phosphorylated (p-) CREB but not p-p38 and p-ATF2, as assayed with antibodies that are specific for the phosphorylated forms of the proteins. Data are expressed as percent control (mean±SD; n=3 determinations).
The rationale for using BV-2 cells in high throughput screening was the paucity of well-characterized human microglial cell lines, and the relevant activation responses and signaling pathways reflect those seen in human and rodent primary microglial cultures. Compounds were tested for their effects on NO accumulation in conditioned media of LPS-stimulated BV-2 cells by measurement of nitrite production by the Griess assay as a read-out for iNOS activity, as described previously. Stock solutions of compounds were prepared in dimethylsulfoxide (DMSO) or in water. When stock solutions were prepared in DMSO, control wells contained the same final concentration of DMSO as the compound-containing wells. […] Solutions of compounds for cell treatments were diluted to a 10× final concentration by dilution of stock solutions in αMEM media. The commercially available drugs tested were: compound 5 (KN93 from Alexis); compound 6 (pyrrolidinedithiocarbamate or PDTC from Sigma), compound 7 (SB203580 from Alexis Corporation), compound 8 (PD98059 from Alexis Corporation), and compound 9 (UO126 from Cell Signaling). SB203580, U0126 and PD98059, PDTC, and KN93 are used as pathway-selective inhibitors of p38 MAPK, MEK1/2, NFκB, and CaMKII signaling pathways. Respectively, Western blots of cell lysates were done with the following antibodies: monoclonal anti-iNOS (1:1000 dilution, Transduction Labs); polyclonal anti-rat IL-1β (1:1000 dilution, R&D Systems, Inc.); monoclonal anti-glial fibrillary acidic protein (GFAP) (1:[…] dilution, Sigma); polyclonal anti-rat alioE (1:15,000 dilution) prepared as described; polyclonal anti-COX-2 (1:500 dilution) and monoclonal anti-phosphoATF2 (1:1000 dilution) from Santa Cruz Biotechnology, polyclonal anti-phosphoCREB (1:1000 dilution), and polyclonal anti-phosphop38 MAPK (1:1000 dilution). Reconstituted enzyme assays were done as described s. The sources of protein kinases were: bovine heart PKA from Promega, rat brain PKC from Calbiochem, rat CaMKII from New England Biolabs, chicken gizzard MLCK prepared as described, and a p38 MAP kinase kit containing recombinant Xenopus p38-MAPK and its human substrate from Upstate Biotechnology. The catalytic domains of these protein kinases retain a high level of amino acid sequence identity across mammalian species, consistent with the lack of documented major differences across species for the in vitro catalytic activity of a given kinase.
FIG. 5. Effects of two compounds on LPS-stimulated INOS and IL-1β production in rat astrocyte cultures. Astrocyte cultures were incubated for 24 hr with control buffer (C), LPS (100 ng/ml) alone, or LPS in the presence of increasing concentrations (0.1, 0.3, 1, 3, 10 μM) of MW01-070C (panel A) or MW01-196A (panel B). The levels of iNOS, proIL-1β, and GFAP were determined by Western blot of cell lysates.
FIG. 6. Effects of MW01-070C on astrocytes treated with various activating stimuli, and analysis of multiple activation responses. Astrocyte cultures were stimulated for 12 hr with Aβ (10 μM), S100B (0.5 μM), or LPS (100 ng/ml) in the absence (−) or presence (+) of MW01-070C (10 μM). […]

cell culture = assay: Cytotoxicity in cell culture; type: cell-based; details: over the entire dose range of inhibitor
Excerpt: The inhibition of iNOS and IL-1β production by MW01-070C, however, is not limited to LPS stimulation. […] The rationale for examination of Aβ stimulation is its involvement as an initiating event in models of AD initiation and progression. The stimulation by Aβ is seen (FIG. 6) with preparations of the Aβ peptide (see Experimental Procedures) that are known to have neurotoxic activity [Hu, J., Akama, K. T., Krafft, G. A., Chromy, B. A., and Van Eldik, L. J. (1998) Brain Res. 785, 195-206; Lambert, M. P. Barlow, A. K., Chromy, B. A., Edwards, C., Freed, R., Liosatos, M., Morgan, T. E., Rozovsky, I., Trommer, B., Viola, K. L., Wals, P., Zhang, C., Finch, C. E., Kraffk, G. A., and Klein, W. L. (1998) Proc. Natl. Acad. Sci. USA 95, 6448-6453]. The rationale for examination of S100 stimulation is its presence as an astrocyte protein that can function as an autocrine and paracrine cytokine, and its increased production in AD and other neuroinflammatory related disorders [Griffin, W. S. T., Stanley, L. C., Ling, C., White, L., MacLeod, V., Perrot, L. J., White, C. L., III, and Araoz, C. (1989) Proc. Natl. Acad. Sci. USA 86, 7611-7615; Hu, J., Castets, F., Guevara, J. L., and Van Eldik, L. J. (1996) J. Biol. Chem. 271, 2543-2547; Donato, R. (1999) Biochim. Biophys. Acta 1450, 191-231; Van Eldik, L. J., and Griffin, W. S. T. (1994) Biochim. Biophys. Acta 1223, 398-403]. […]

[1] = LPS-stimulated rat astrocytes, 24 hr, Western blot
[2] = LPS-stimulated rat astrocytes, 24 hr, Western blot, listed as 1
[3] = activated astrocytes, compound 10 μM
[4] = astrocytes stimulated by S100 (0.5 μM), 12 hr, compound 10 μM
[5] = glia stimulated by Aβ1-42, compound 10 μM

`N=c1cc2c(nn1CCCCCCCCCCC(=O)N1CCN(c3ncccn3)CC1)-c1ccccc1CC2` [MW01-070C] was tested, and the IL-1β production (rat astrocytes; [1]) was “dose dependent inhibition”, the iNOS production (rat astrocytes; [1]) was “dose dependent inhibition” and the IL-1β production (rat astrocytes; [2]) was “inhibits”. For the same compound, the iNOS production (rat astrocytes; [2]) was “inhibits”, the COX-2 levels (rat astrocytes; [3]) was “no effect” and the apoE production (rat astrocytes; [3]) was “no effect”. The GFAP levels (rat astrocytes; Western blot) was “no change”, the GFAP levels (rat astrocytes; Western blot, listed as 1) was “not changed” and the IL-1β production (rat astrocytes; [4]) was “inhibits”. For the same compound, the iNOS production (rat astrocytes; [4]) was “inhibits”, the IL-1β production (rat astrocytes; [5]) was “inhibits” and the iNOS production (rat astrocytes; [5]) was “inhibits”. The “cytotoxicity in cell culture” value (cell culture) was “no evidence of cytotoxicity”.
